How the values were obtained:
Homo sapiens [1] = species: Homo sapiens; assay: Selectivity ratio of Ki for human MT2 receptor to Ki for human MT1 receptor
[2] = target: T1, Melatonin receptor type 1B (Homo sapiens, UniProt P49286); assay: Agonist activity at MT2 receptor (unknown origin) expressed in mouse NIH3T3 cells assessed as inhibition of forskolin-induced cAMP accumulation; format: functional, cell-based
T1 sequence (P49286 whole entry): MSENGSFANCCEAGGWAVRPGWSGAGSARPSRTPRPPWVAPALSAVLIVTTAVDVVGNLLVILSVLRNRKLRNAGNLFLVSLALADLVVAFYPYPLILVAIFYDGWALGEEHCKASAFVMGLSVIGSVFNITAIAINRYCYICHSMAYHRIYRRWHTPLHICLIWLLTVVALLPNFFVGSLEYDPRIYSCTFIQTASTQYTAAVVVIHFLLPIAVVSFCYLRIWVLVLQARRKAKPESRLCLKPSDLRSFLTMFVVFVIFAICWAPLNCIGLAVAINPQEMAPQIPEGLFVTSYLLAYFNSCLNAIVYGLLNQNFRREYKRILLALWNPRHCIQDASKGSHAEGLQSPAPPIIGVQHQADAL

[3] = target: T2, Melatonin receptor type 1A (Homo sapiens, UniProt P48039); assay: Antagonist activity at MT1 receptor (unknown origin) assessed as cAMP accumulation; format: functional
T2 sequence (P48039 whole entry): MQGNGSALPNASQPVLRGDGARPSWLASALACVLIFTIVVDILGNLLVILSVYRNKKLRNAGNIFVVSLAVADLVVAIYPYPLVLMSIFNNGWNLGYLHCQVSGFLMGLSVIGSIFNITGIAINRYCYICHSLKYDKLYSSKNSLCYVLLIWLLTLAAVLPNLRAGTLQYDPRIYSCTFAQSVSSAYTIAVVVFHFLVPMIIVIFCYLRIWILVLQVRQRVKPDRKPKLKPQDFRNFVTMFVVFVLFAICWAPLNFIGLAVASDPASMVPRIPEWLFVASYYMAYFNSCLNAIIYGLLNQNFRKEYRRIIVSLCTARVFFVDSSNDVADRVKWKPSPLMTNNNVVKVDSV

Homo sapiens [4] = species: Homo sapiens; assay: Selectivity ratio of Ki for MT2 receptor (unknown origin) to Ki for MT1 receptor (unknown origin)
[5] = target: T2, Melatonin receptor type 1A; assay: Displacement of [125I]2-iodomelatonin from human MT1 receptor expressed in CHO cells; format: cell-based
[6] = target: T1, Melatonin receptor type 1B; assay: Displacement of [125I]2-iodomelatonin from human MT2 receptor expressed in CHO cells; format: cell-based
Homo sapiens [7] = species: Homo sapiens; assay: Selectivity ratio of Ki for human recombinant MT1 receptor to Ki for human recombinant MT2 receptor
[8] = Partial agonist activity at melatonin receptor in chicken brain membranes assessed as cAMP level; format: cell membranes, Gallus gallus, Membrane
[9] = target: T2, Melatonin receptor type 1A; assay: Antagonist activity at MT1 receptor (unknown origin) expressed in mouse NIH3T3 cells by [35S]GTPgammaS binding assay; format: functional
[10] = target: T1, Melatonin receptor type 1B; assay: Antagonist activity at MT2 receptor (unknown origin) expressed in mouse NIH3T3 cells by [35S]GTPgammaS binding assay; format: functional
[11] = target: T1, Melatonin receptor type 1B; assay: Displacement of [125I]2-iodomelatonin from human recombinant MT2 receptor expressed in African green monkey COS7 cells; format: cell-based, COS-7
[12] = target: T2, Melatonin receptor type 1A; assay: Binding affinity to MT1 receptor (unknown origin) expressed in HEK293 cells; format: cell-based
[13] = target: T1, Melatonin receptor type 1B; assay: Binding affinity to MT2 receptor (unknown origin) expressed in HEK293 cells; format: cell-based
Homo sapiens [14] = species: Homo sapiens; assay: Selectivity ratio of Ki for MT1 receptor (unknown origin) to Ki for MT2 receptor (unknown origin)
[15] = target: T1, Melatonin receptor type 1B; assay: Displacement of [125I]2-iodomelatonin from MT2 receptor (unknown origin) expressed in HEK293 cells; format: cell-based
[16] = target: T2, Melatonin receptor type 1A; assay: Agonist activity at MT1 receptor (unknown origin) expressed in mouse NIH3T3 cells assessed as inhibition of forskolin-induced cAMP accumulation; format: functional, cell-based
[17] = target: T2, Melatonin receptor type 1A; assay: biochemical
CYP3A4 = CYP3A4 (Homo sapiens, UniProt P08684); assay: Half life of the compound assessed as CYP3A4 (unknown origin)-mediated drug metabolism; format: ADME
CYP3A4, sequence (P08684 whole entry): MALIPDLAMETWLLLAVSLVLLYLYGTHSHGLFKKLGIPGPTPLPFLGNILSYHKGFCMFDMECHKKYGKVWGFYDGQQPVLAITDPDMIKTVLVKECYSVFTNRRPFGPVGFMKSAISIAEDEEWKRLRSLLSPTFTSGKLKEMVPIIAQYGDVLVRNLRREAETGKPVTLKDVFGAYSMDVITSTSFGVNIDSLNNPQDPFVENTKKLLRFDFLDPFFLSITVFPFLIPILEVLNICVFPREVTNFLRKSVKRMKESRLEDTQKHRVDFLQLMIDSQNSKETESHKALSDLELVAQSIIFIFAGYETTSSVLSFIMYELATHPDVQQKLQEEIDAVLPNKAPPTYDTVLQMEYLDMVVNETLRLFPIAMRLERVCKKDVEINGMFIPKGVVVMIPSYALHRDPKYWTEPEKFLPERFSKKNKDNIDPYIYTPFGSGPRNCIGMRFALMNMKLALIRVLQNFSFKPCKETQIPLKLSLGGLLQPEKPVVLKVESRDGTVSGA

[18] = target: T2, Melatonin receptor type 1A; assay: Binding affinity to MT1 receptor (unknown origin) expressed in HEK cells; format: cell-based, HEK293
[19] = target: T1, Melatonin receptor type 1B; assay: Binding affinity to MT2 receptor (unknown origin) expressed in HEK cells; format: cell-based, HEK293

O=C(NCCCc1cccc2nc(CCCCc3ccccc3)oc12)C1CC1
Ratio Ki (Homo sapiens [1]): 35

CC(=O)NCCN(C)c1cccc(OCCCCc2ccccc2)c1
Ki [2]: 91.2 nM

COc1cc2c(cc1OC)C(CC(c1ccccc1)c1ccccc1)N(C(C)=O)CC2 (stereo unspecified)
IC50 [3]: > 1000 nM

CC(=O)NCCc1cccc2ccc(OCCCCOc3ccc4cccc(CCNC(C)=O)c4c3)cc12
Ratio Ki (Homo sapiens [4]): 122 | Ki [5]: 3.1 nM | Ki [6]: 167 nM | Ratio Ki (Homo sapiens [1]): 54

CCCC(=O)NCCc1c2n(c3ccc(OC)cc13)Cc1ccccc1-2
Ratio Ki (Homo sapiens [7]): 89

CC(=O)NCCc1cccc2ccc(-c3ccc4cccc(CCNC(C)=O)c4c3)cc12
Ki [5]: 5.2 nM | Ki [6]: 246 nM

CCCC(=O)NCCCc1cccc2c1OCCO2
Ki [8]: 2.4 nM

COc1ccc2c(c1)C(CNC(C)=O)Cc1ccccc1C2 (stereo unspecified)
Ki [9]: 27 nM | Ki [10]: 1.3 nM

COc1cc2c(CCNC(C)=O)c(C)[nH]c2cc1Cl
Ki [11]: 2.2 nM

CC(=O)NCCc1c[nH]c2ccc(OCCCOc3ccccc3)cc12
Ki [5]: 7.9 nM | Ki [6]: 87 nM | Ratio Ki (Homo sapiens [1]): 10

CCCNC(=O)CCCc1cccc2c1SCCO2
IC50 [12]: 2.3 nM | IC50 [13]: 6.7 nM

COc1ccc2oc(Cc3ccccc3)c(CCNC(C)=O)c2c1
Ratio Ki (Homo sapiens [14]): 23

CC(=O)NCCc1cccc2ccc(OCCCOc3ccc4cccc(CCNC(C)=O)c4c3)cc12
Ki [5]: 3.9 nM | Ki [6]: 149 nM | Ratio Ki (Homo sapiens [1]): 3

COc1ccc2[nH]c(Cc3ccccc3)c(CCNC(C)=O)c2c1
Ratio Ki (Homo sapiens [7]): 130

COc1cccc(Cc2oc3ccc(OC)cc3c2CCNC(C)=O)c1
Ki [15]: 0.33 nM | Ratio Ki (Homo sapiens [14]): 123

CCOC(=O)c1[nH]c2ccc(OC)c3c2c1[C@@H](CNC(C)=O)CC3
Ki [16]: 0.18 nM | Ki [2]: 0.29 nM

C=CCC(=O)NCCc1c(Cc2cccc(OC)c2)oc2ccc(OC)cc12
Ratio Ki (Homo sapiens [14]): 192

CCC(=O)NC1Cc2ccccc2C(c2ccccc2)C1 (racemic)
Ratio Ki (Homo sapiens [7]): 330 | Ki [17]: 501 nM

COc1ccc2[nH]cc(CCNC(C)=O)c2c1 [MELATONIN]
half-life (CYP3A4): 20 min

CC(=O)NCCc1c[nH]c2ccc(OCCCc3ccccc3)cc12
Ki [5]: 3.9 nM | Ki [6]: 49 nM | Ratio Ki (Homo sapiens [1]): 10

CCCC(=O)NCCc1c2n(c3ccc(OC)cc13)CCCc1ccccc1-2
Ratio Ki (Homo sapiens [7]): 132

COc1cc2c(cc1OC)C(CCc1ccccc1)N(C(C)=O)CC2 (stereo unspecified)
IC50 [3]: > 1000 nM

COc1cc2[nH]cc(CCNC(C)=O)c2cc1OC
Ki [11]: 3.5 nM | Ratio Ki (Homo sapiens [7]): 60 | Ki [17]: 207 nM

CCCCCCOc1ccc2c(c1)C(CCNC(C)=O)CCO2 (stereo unspecified)
Ki [18]: 1.2 nM | Ki [19]: 29 nM | Ratio Ki (Homo sapiens [4]): 25 | Ki [5]: 3.4 nM | Ki [6]: 21.4 nM

CC(=O)NCCc1c(Cc2ccccc2)[nH]c2ccccc12
Ratio Ki (Homo sapiens [7]): 15
